In patent publication US20220088024A1, “METHODS FOR TREATING CANCER USING TOZADENANT” (Biotie Therapies, Inc., priority 2018, published 2022):
Values joined by “and” are separate entries in the source; they are usually repeats but may differ in a detail not shown here. Identical values can stand only once. Like-named read-outs stand apart in the source and are kept apart here.

Experiments:
[1] = test system: B16F10 CD73 melanoma metastases; assay: Example 8: number of lung tumor metastases in the B16F10 CD73 tumor mouse model; assay type: in vivo, C57/BL6 mice (A2A-/- or Wild-Type); settings: 100 mg/kg once-daily oral gavage days 0 to 13, counted day 14, Batch 71236AA002
Experimental: The C57/BL6 mouse melanoma cell line B16F10 CD73 was cultured in DMEM supplemented with 10% FCS, GlutaMAX, and penicillin/streptomycin. Tumor cells are periodically verified to be Mycoplasma negative by the Victorian Infectious Diseases References
Lab (Melbourne, VIC, Australia) by PCR analysis. 2×10^5 cells were resuspended in PBS and injected i.v. into C57/BL6 mice (A2A^−/− or Wild-Type) in a 200 μL volume. At day 14, lungs were excised and the number of metastases counted under the dissecting microscope. Mice were dosed with either SYN-115 (Batch 71236AA002) at 100 mg/kg or vehicle control once-daily via oral gavage on days 0 to 13. To calculate a dose of SYN-115, mouse weight was estimated to be 20 g per mouse. Therefore, 100 mg/kg=2 mg per mouse in 200 μL, which is equivalent to 10 mg/ml. To make up 40 mL 400 milligrams of SYN-115 was weighed and added into a Falcon tube, then 1 mL of Tween 80 added and mixed into a paste and then 39 mL of 1% Methyl Cellulose was added. Solution was vortexed and then left on rotating mixer for at least 2 hours and maintained at 4° C.

[2] = Example 11: plasma pharmacokinetics (toxicokinetics) of tozadenant in mice after twice daily oral administration; assay type: in vivo, Crl:CD1(ICR) mice; design: Cmax/D / AUC0-24/D: unit not given beside the values; settings: for AUC(0-t) / AUC / Cmax / Tmax: Crl:CD1(ICR), mouse, plasma; for Cmax: read-out: Cmax
Experimental: The plasma pharmacokinetics and exposure levels of tozadendant have been documented in mice after oral administration, the same route of administration as tozadenant was dosed in the oncology efficacy studies.
The PK of tozadenant in mice was compared across a range of doses and dose frequencies. […]
Groups of mice of the Crl:CD1(ICR) strain were dosed, as follows:
The vehicle for the tozadenant in this mouse PK study was 1.6% (w/v) Avicel RC-591 (FMC), 0.2% (v/v) Tween 80, 0.18% (w/v) methylparaben and 0.02% (w/v) propylparaben in reverse osmosis water, pH 6.0±0.3. The 1.6% (w/v) Avicel RC-591 (FMC) was supplied by Biopolymer International, Brussels, Belgium. The 0.2% (v/v) Tween 80, 0.18% (w/v) methylparaben and 0.02% (w/v) propylparaben in reverse osmosis water, pH 6.0±0.3 was supplied by and Sigma-Aldrich Co Ltd, Poole, UK. This is the same formulation used for the mouse oncology model oral dosing.
The test article was administered orally by gavage, as follows:
Groups 1 to 4: Twice for one day (0 and 8 hours apart relative to initial dose)
Group 5: Twice for one day (0 and 12 hours apart relative to initial dose)
Blood samples for toxicokinetics (0.25 mL nominal) were taken from all toxicokinetic animals (subgroup 2), as follows:
For animals dosed at 0, 8 or 12 hour intervals, sampling time with respect to dose was symmetrical in each animal, for example, if an animal was sampled 0.5 hours after the first dose, it was sampled 0.5 hours after the second dose. The second sample obtained from each animal was collected under terminal anaesthesia.
Samples were taken from the orbital sinus (with the exception of Group 3 animals at the 10 hour bleed, which were taken by cardiac puncture) under isoflurane anaesthesia into K2EDTA. Samples were gently inverted to ensure mixing with anticoagulant, placed on a blood roller for at least one minute and then placed in a Kryorack until centrifugation.
Centrifugation was carried out at approximately 4-8° C. within one hour of collection. The resultant plasma from all samples was separated, transferred to uniquely labelled clear polypropylene tubes and frozen immediately at approximately <−10 to −30° C. Samples were analyzed at Covance.
Tozadenant was quantitated using protein precipitation followed by liquid chromatography mass spectrometry technique for quantification. This bioanalytical method was previously established and validated for tozadenant in mouse plasma.

[3] = Group 1, Male, 100 mg/kg/day (50 mg/kg/dose), oral, dosing at 0, 8 hr
[4] = Group 2, Male, 300 mg/kg/day (150 mg/kg/dose), oral, dosing at 0, 8 hr
[5] = Group 3, Male, 1000 mg/kg/day (500 mg/kg/dose), oral, dosing at 0, 8 hr
[6] = Group 4, 2000 mg/kg/day, dosing at 0, 8 hr
[7] = Group 4, Female, 2000 mg/kg/day (1000 mg/kg/dose), oral, dosing at 0, 8 hr
[8] = Group 4, Male, 2000 mg/kg/day (1000 mg/kg/dose), oral, dosing at 0, 8 hr
[9] = Group 5, 2000 mg/kg/day, dosing at 0, 12 hr
[10] = Group 5, Female, 2000 mg/kg/day (1000 mg/kg/dose), oral, dosing at 0, 12 hr
[11] = Group 5, Male, 2000 mg/kg/day (1000 mg/kg/dose), oral, dosing at 0, 12 hr

SMILES: COc1ccc(N2CCOCC2)c2sc(NC(=O)N3CCC(C)(O)CC3)nc12 [SYN-115, 4-hydroxy-4-methyl-piperidine-1-carboxylic acid (4-methoxy-7-morpholin-4-yl-benzothiazol-2-yl)-amide]
- Number of Tumor Metastases (lung), individual mice [1]: 21 and 1 (2×) and 5 and 11 and 13 and 28 and 2 and 8
- AUC0-24/D [2, 3]: 35.2
- Cmax/D [2, 3]: 7.64
- AUC0-24/D [2, 4]: 33.0
- Cmax/D [2, 4]: 5.73
- AUC0-24/D [2, 5]: 29.9
- Cmax/D [2, 5]: 3.61
- Female:Male Ratio AUC0-24 [2, 6]: 2.70
- Female:Male Ratio Cmax [2, 6]: 2.38
- AUC0-24/D [2, 7]: 58.0
- Cmax/D [2, 7]: 6.05
- AUC0-24/D [2, 8]: 21.5
- Cmax/D [2, 8]: 2.54
- Female:Male Ratio AUC0-24 [2, 9]: 2.02
- Female:Male Ratio Cmax [2, 9]: 1.28
- AUC0-24/D [2, 10]: 31.4
- Cmax/D [2, 10]: 4.12
- AUC0-24/D [2, 11]: 15.6
- Cmax/D [2, 11]: 3.22
- AUC(0-t) ([2]; female, po, 2000 mg/kg/day, Group 4, Female, 2000 mg/kg/day (1000 mg/kg/dose), oral, dosing at 0, 8 hr, read-out: AUC0-8): 35400 ng·h/mL
- AUC(0-t) ([2]; female, po, 2000 mg/kg/day, Group 4, Female, 2000 mg/kg/day (1000 mg/kg/dose), oral, dosing at 0, 8 hr, read-out: AUC0-24): 116000 ng·h/mL
- AUC ([2]; female, po, 2000 mg/kg/day, Group 4, Female, 2000 mg/kg/day (1000 mg/kg/dose), oral, dosing at 0, 8 hr, read-out: AUC8-24): 80600 ng·h/mL
- Cmax ([2]; female, po, 2000 mg/kg/day, Group 4, Female, 2000 mg/kg/day (1000 mg/kg/dose), oral, dosing at 0, 8 hr): 12100 ng/mL
- Tmax ([2]; female, po, 2000 mg/kg/day, Group 4, Female, 2000 mg/kg/day (1000 mg/kg/dose), oral, dosing at 0, 8 hr, read-out: Tmax): 14 h
- AUC(0-t) ([2]; female, po, 2000 mg/kg/day, Group 5, Female, 2000 mg/kg/day (1000 mg/kg/dose), oral, dosing at 0, 12 hr, read-out: AUC0-12): 35500 ng·h/mL
- AUC(0-t) ([2]; female, po, 2000 mg/kg/day, Group 5, Female, 2000 mg/kg/day (1000 mg/kg/dose), oral, dosing at 0, 12 hr, read-out: AUC0-24): 62700 ng·h/mL
- AUC ([2]; female, po, 2000 mg/kg/day, Group 5, Female, 2000 mg/kg/day (1000 mg/kg/dose), oral, dosing at 0, 12 hr, read-out: AUC12-24): 27200 ng·h/mL
- Cmax ([2]; female, po, 2000 mg/kg/day, Group 5, Female, 2000 mg/kg/day (1000 mg/kg/dose), oral, dosing at 0, 12 hr): 8240 ng/mL
- Tmax ([2]; female, po, 2000 mg/kg/day, Group 5, Female, 2000 mg/kg/day (1000 mg/kg/dose), oral, dosing at 0, 12 hr, read-out: Tmax): 1.2 h
- Tmax ([2]; female, po, 2000 mg/kg/day, females, 0, 12 hour dosing, read-out: Tmax (following the first dose)): 1.2 h
- Tmax ([2]; female, po, 2000 mg/kg/day, females, 2000 mg/kg/day, 0, 8 hours dosing, read-out: Tmax (after the second dose)): 6 h
- AUC ([2]; male, oral, 100 mg/kg/day, mice, 100 mg/kg/day, read-out: Average AUC): 3520 ng·h/mL
- AUC(0-t) ([2]; male, po, 100 mg/kg/day, Group 1, Male, 100 mg/kg/day (50 mg/kg/dose), oral, dosing at 0, 8 hr, read-out: AUC0-8): 1950 ng·h/mL
- AUC(0-t) ([2]; male, po, 100 mg/kg/day, Group 1, Male, 100 mg/kg/day (50 mg/kg/dose), oral, dosing at 0, 8 hr, read-out: AUC0-24): 3520 ng·h/mL
